Experiments:
Full-length human DNMT1 = Full-length human DNMT1 (Homo sapiens (Human), UniProt P26358); test: DNMT1 Scintillation Proximity Assay (SPA) - Assay A; format: biochemical; conditions: footnote a: DNMT1 full length
Experimental: DNMT1 Scintillation Proximity Assay (SPA)—Assay A (Full-Length Human DNMT1)
This assay used Scintillation Proximity technology in a signal increase format to evaluate the potency of compounds. Full-length human DNMT1, hemi-methylated DNA duplex*, and tritiated SAM were utilized to monitor activity. Assay plate creation consisted of the following parameters: 500 nL of an 11 pt, 3-fold serial dilution of compound was stamped into a 96 well Costar plate (#3884). Assay buffer mix was made on the day of assay consisting of: 20 mM Tris pH 7.5, 1 mM DTT, 1 mM EDTA, and 5% glycerol. A 2× enzyme mix was then prepared consisting of 30 nM DNMT1 protein (full length human DNMT, made in house) in assay buffer. The 2× substrate mix was made last, and consisted of 160 nM 40mer hemi-methylated DNA*, 0.48 μM ^3H-SAM, and 2.92 μM cold SAM in assay buffer (^3H-SAM is added last). The quench (1 mM SAH) was made in bulk and frozen at −20 until the time of use. Ten uL of the 2× substrate mix was added to the entire plate using a multichannel electronic pipette. Plate was shaken for at least 10s between additions to ensure mixing. Next, 20 uL of 2× quench mix was added to column 12 using a multichannel pipette (shake plate). Using a multichannel electronic pipette, 10 uL of 2× enzyme mix was added to the full plate starting with column […] (column 12 last to avoid pre-quench carryover). Plates were incubated on the shaker for 30 minutes with the plate covered. At the end of the incubation period, 20 uL of quench mix were added to all wells except column 12 (shake plate) followed by the addition of 20 uL of 3 mg/mL PerkinElmer PEI PVT SPA Beads (Cat. #RPNQ0097) diluted in DNAse free water and allowed to shake for at least 30 minutes. Plates were sealed with a clear seal and centrifuged at 500 rpm for 1 min. Plates were read on a MicroBeta (Perkin Elmer, read for ^3H (1 min/well).
Microsoft Excel was used to analyze the data up to Vi/Vo and GraFit was used to fit the data. Responses were normalized to the uninhibited (DMSO) and pre-quenched controls within each plate. Dose-response curves were analyzed using a three-parameter logistic fit with Ymin constrained to 0 and results were expressed as IC50 values.
Final assay conditions: 20 mM Tris (Hampton Research—HR-937-06), pH 7.5, 1 mM DTT (Invitrogen—P2325), 1 mM EDTA (Invitrogen—AM9260G), 5% Glycerol (Teknova—G1796), 0.02% Pluronic F127 (Life Technologies—P6866), 15 nM DNMT1 (full length human DNMT1—GSK made in-house), 240 nM ^3H-SAM (PerkinElmer—NET155H001MC), 1460 nM cold SAM (New England Biolabs—B9003S) and 80 nM 40-mer hemi-methylated DNA Oligonucleotide (Integrated DNA Technologies—custom), 1 mM SAH (Sigma A9384), and 1 mg/mL PEI PVT SPA Beads (Perkin Elmer RPNQ0097) resuspended in water.

physchem = conditions: FaSSIF buffer, pH 6.5, fassif, thermodynamic from solid
Experimental: Solubility of Solid Compounds in Fasted Simulated Intestinal Fluid
The solubility of solid compounds in Fasted Simulated Intestinal Fluid (FaSSIF) was determined at pH 6.5 after 4 hour equilibration at room temperature (using procedures described in Sou, T.; Bergström, C. A. S. Automated assays for thermodynamic (equilibrium) solubility determination. Drug Discovery Today: Technologies 2018, 27, 11-19). 1 ml of FaSSIF buffer (3 mM Sodium taurocholate, 0.75 mM lecithin in sodium phosphate buffer at pH6.5) was added to manually weighed 1 mg of solid compound in a 4 ml vial. The resulting suspension was shaken at 900 rpm for 4 hours at room temperature and then transferred to a Multiscreen HTS, 96-well solubility filter plate to separate the residual solid and the filtrate. Quantification of the compound concentration in the filtrate was performed by HPLC-UV using single point calibration of a known concentration of the compound in DMSO. […] The dynamic range of the assay was 1-1000 μg/ml.

[1] = test system: SKM-1 human AML (acute myeloid leukemia) xenografts; test: Anti-tumor efficacy in subcutaneous SKM-1 human AML xenografts; format: in vivo, mouse
Experimental: (§1) SKM-1 cells (3.8×10^6) suspended in 50% Matrigel (BD Biosciences)/50% Dulbecco's phosphate-buffered saline (DPBS) were implanted in 8-11 week old female NOD.CB17-Prkdc1NCrCrl mice. Tumors were measured with digital calipers, and stratified block randomized according to tumor size (P value >0.9085) into treatment groups with average tumor volumes of 219 or 1076 mm^3 for efficacy or PK/PD studies respectively. GSK4172239A was formulated weekly in Sterile water. Mice were measured twice weekly for body weight and tumor size. Dosing started on the day after randomization. Animals were dosed twice daily (BID) via oral gavage (PO) with Example 1 at 22, 67, or 200 mg/kg. A maximal tumor burden of 2,500 mm^3 for two consecutive measurements was not exceeded during the studies. For the PK/PD study, tumor, blood, and bone marrow were collected two hours following the 20th dose (10 days). For PK, blood was mixed 50:50 with water while tumor was homogenized (Omni hand-held homogenizer) in sterile water at a 1:4 dilution. Both samples were precipitated with acetonitrile, and concentrations of Example 4 were determined by HPLC—MS/MS (Waters Acquity uPLC, Sciex API5000). SKM-1 tumor and mouse bone marrow samples were assessed using a global DNA methylation (5-methylcytosine) LC-MS/MS assay. […] An HPLC—MS/MS method was optimized to quantify 2′-deoxycytidine and 5-methyl-2′-deoxycytidine. […] Concentrations of 2′-deoxycytidine and 5-methyl-2′-deoxycytidine were determined using standard curves generated from pure 2′-deoxycytidine (Sigma-Aldrich) and 5-methyl-2′-deoxycytidine (Santa Cruz Biotechnology). […]
(§2) Example 1 was evaluated in immunocompromised mice bearing subcutaneous SKM-1 human AML (acute myeloid leukemia) xenografts. […] In addition, the mechanistic consequence of inhibiting DNMT1, a decrease in DNA methylation, was assessed globally using a LC-MS/MS-based 5-methylcytosine assay. […] In a subsequent study, to examine anti-tumor efficacy, tumor volume was measured (n=10 animals per group) twice weekly for 4 weeks while on treatment.

[2] = Drug exposure in blood and tumor of mice bearing SKM-1 xenografts (PK/PD study); format: in vivo, mouse; conditions: 22, 67 or 200 mg/kg BID PO; blood and tumor two hours following the 20th dose
Experimental: as §1, with “A maximal tumor burden of 2,500 mm^3 for two consecutive measurements was not exceeded during the studies. For the PK/PD study, tumor, blood, and bone marrow were collected two hours following the 20th dose (10 days). For PK, blood was mixed 50:50 with water while tumor was homogenized (Omni hand-held homogenizer) in sterile water at a 1:4 dilution.” left out
Example 1 was evaluated in immunocompromised mice bearing subcutaneous SKM-1 human AML (acute myeloid leukemia) xenografts. […]

[3] = test system: global DNA methylation (5-methylcytosine); test: Global DNA methylation (5-methylcytosine) LC-MS/MS assay in SKM-1 tumor and mouse bone marrow; format: in vivo
Experimental: as §1, §2

Full-length human DNMT1, sequence (P26358 whole entry): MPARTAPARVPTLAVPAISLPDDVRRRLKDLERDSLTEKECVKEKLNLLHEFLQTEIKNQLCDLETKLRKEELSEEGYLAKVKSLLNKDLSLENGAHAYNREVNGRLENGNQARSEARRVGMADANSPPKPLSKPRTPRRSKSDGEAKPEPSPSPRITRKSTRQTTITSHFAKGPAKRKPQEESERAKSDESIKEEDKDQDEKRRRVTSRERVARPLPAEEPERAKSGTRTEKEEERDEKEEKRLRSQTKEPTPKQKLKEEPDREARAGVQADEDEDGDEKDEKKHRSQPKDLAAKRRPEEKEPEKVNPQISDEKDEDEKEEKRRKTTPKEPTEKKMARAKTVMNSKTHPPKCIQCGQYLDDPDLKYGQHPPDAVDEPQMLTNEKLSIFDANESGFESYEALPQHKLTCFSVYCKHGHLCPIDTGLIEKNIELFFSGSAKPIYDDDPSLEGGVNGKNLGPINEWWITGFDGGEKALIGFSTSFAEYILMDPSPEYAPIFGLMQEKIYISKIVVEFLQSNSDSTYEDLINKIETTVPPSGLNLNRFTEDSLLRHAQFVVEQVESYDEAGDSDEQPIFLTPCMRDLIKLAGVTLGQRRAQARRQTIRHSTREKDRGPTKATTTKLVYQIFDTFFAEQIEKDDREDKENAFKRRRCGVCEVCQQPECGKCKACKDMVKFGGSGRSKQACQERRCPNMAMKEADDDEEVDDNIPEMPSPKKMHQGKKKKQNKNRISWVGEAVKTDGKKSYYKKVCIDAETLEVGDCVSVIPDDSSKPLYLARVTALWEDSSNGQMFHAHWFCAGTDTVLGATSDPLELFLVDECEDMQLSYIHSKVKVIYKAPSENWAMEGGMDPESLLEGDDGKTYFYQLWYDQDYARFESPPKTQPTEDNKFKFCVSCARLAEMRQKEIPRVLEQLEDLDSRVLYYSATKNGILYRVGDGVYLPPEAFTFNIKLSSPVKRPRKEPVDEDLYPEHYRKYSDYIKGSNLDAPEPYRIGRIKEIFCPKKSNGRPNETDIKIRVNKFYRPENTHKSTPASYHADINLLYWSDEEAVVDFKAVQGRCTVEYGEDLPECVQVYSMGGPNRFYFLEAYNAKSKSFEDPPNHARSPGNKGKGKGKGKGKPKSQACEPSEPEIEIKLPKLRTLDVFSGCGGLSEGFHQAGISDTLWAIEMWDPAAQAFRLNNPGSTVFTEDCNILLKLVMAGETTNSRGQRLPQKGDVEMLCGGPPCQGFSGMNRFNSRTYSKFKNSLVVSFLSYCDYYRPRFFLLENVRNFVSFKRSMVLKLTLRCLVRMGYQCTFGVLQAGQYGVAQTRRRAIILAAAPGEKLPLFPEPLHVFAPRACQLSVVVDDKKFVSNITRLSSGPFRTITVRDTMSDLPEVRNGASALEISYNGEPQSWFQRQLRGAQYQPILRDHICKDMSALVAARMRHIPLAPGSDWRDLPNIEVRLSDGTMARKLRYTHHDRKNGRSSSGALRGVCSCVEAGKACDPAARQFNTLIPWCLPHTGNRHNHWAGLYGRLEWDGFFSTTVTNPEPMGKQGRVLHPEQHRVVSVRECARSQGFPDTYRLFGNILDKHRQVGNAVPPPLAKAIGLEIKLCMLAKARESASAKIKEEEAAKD

IC50 (Full-length human DNMT1): 16.1 µM
solubility at 4 h (physchem): > 1000 µg/mL
Compound: CCc1c(C#N)c(S[C@@H](C(=O)NP(=O)(O)O)c2ccc(OS(C)(=O)=O)cc2)nc(N(C)C)c1C#N [Example 1, (R)-(2-((3,5-dicyano-6-(dimethylamino)-4-ethylpyridin-2-yl)thio)-2-(4-((methylsulfonyl)oxy)phenyl)acetyl)phosphoramidic acid]
tumor growth inhibition ([1]; 22 mg/kg BID PO, vs vehicle at day 22): 35%
tumor response ([1]; 200 mg/kg BID PO, vs vehicle at day 22): marked regression
tumor volume ([1]; 22, 67 or 200 mg/kg BID PO, measured twice weekly for 4 weeks): dose-dependent reduction
drug exposure (measured as the racemic active moiety Example 4) [2]: dose-proportional and roughly equivalent in blood and tumor
global DNA methylation in comparison to vehicle ([3]; 22, 67 or 200 mg/kg BID PO, 10 days): reduced at all doses
maximal change (reduction) in global DNA methylation in the tumor vs vehicle ([3]; SKM-1 tumor, 200 mg/kg BID PO, two hours following the 20th dose (10 days)): 49%
maximal change (reduction) in global DNA methylation in the bone marrow vs vehicle ([3]; mouse bone marrow, 200 mg/kg BID PO, two hours following the 20th dose (10 days)): 47%

From patent publication US11771711B2, “Substituted pyridines as DNMT1 inhibitors” (GlaxoSmithKline Intellectual Property Development Limited, priority 2021, dated 2023)
